Values of other authors, collected in US20040131981A1, “Color developing solution of silver halide color photographic photosensitive material and manufacturing method of color developing solution” (priority 2002, published 2004).
Values joined by “and” are separate entries in the source; they are usually repeats but may differ in a detail not shown here. Identical values can stand only once.

Conditions: Compound I, pH buffering agent of alkali part solution

Row | Pka | Molecule
1 | 9.96 | CCCCC(N)C(=O)O (stereo not drawn) [Compound I-7]
2 | 9.62 | NC(CC(=O)O)C(=O)O (stereo not drawn) [Compound I-15]
3 | 9.67 | NC(CCC(=O)O)C(=O)O (stereo not drawn) [Compound I-16]
4 | 9.66 | CCC(N)C(=O)O (stereo not drawn) [Compound I-5]
5 | 10.26 | NCCC(=O)O [Compound I-4, H2N—C2H4—COOH]
6 | 10.72 and 9.18 | NCCCCC(N)C(=O)O (stereo not drawn) [Compound I-19]
7 | 9.87 | CC(N)C(=O)O (stereo not drawn) [Compound I-3]
8 | 9.12 | NC(CO)C(=O)O (stereo not drawn) [Compound I-11]
9 | 9.78 | CC(C)CC(N)C(=O)O (stereo not drawn) [Compound I-8]
10 | 10.31 | NC1(C(=O)O)CCCC1 [Compound I-29]
11 | 10.47 | CCN(CC)CC(=O)O [Compound I-25]
12 | 9.18 | NC(Cc1ccccc1)C(=O)O (stereo not drawn) [Compound I-9]
13 | 9.80 | CN(C)CC(=O)O [Compound I-24]
14 | 9.58 | CC1C(O)CNC1C(=O)O (stereo not drawn) [Compound I-27]
15 | 10.68 | CC1CCNC1C(=O)O (stereo not drawn) [Compound I-26]
16 | 9.50 | NCC(N)C(=O)O (stereo not drawn) [Compound I-17]
17 | 10.01 | CNCC(=O)O [Compound I-2, H3C—NH—CH2—COOH]
18 | 9.08 | N=C(N)NCCCC(N)C(=O)O (stereo not drawn) [Compound I-20]
19 | 10.03 | CCCNCC(=O)O [Compound I-22, CH3CH2CH2—NH—CH2COOH]
20 | 10.28 | NC(CS)C(=O)O (stereo not drawn) [Compound I-13]
21 | 9.13 | CSCCC(N)C(=O)O (stereo not drawn) [Compound I-14]
22 | 10.13 | NC1(C(=O)O)CCCCC1 [Compound I-30]
23 | 9.55 | NC(Cc1c[nH]c2ccccc12)C(=O)O (stereo not drawn) [Compound I-28]
24 | 10.10 | CCNCC(=O)O [Compound I-21, H5C2—NH—CH2—COOH]
25 | 10.46 | NC1(C(=O)O)CCCCCC1 [Compound I-31]

Same assay, conditions: Compound II, pH buffering agent of alkali part solution

Row | Pka | Molecule
26 | 9.99(cis) | NC1CCCCC1N (stereo not drawn) [II-50]
27 | 9.57 | O=C(O)CNCCNCC(=O)O [II-26, HOOCH2C—NH—C2H4—NH—CH2COOH]
28 | 9.97 | CC(N)C(C)N (stereo not drawn) [II-46, NH2—CH(CH3)—CH(CH3)—NH2]
29 | 10.00 | CN(C)CCN [II-38]
30 | 10.15 | O=C(O)CN(CCN(CC(=O)O)C1CCCCC1)CC(=O)O [II-29]
31 | 10.12 | NCCNCCO [II-37, N-(2-hydroxyethyl)ethylenediamine]
32 | 9.89(trans) | NC1CCCCC1N (stereo not drawn) [II-51]
33 | 9.58 | O=C(O)CCNCCNCCC(=O)O [II-27, HOOCH4C2—NH—C2N4—NH—C2H4COOH]
34 | 10.48 | NC1CCCCCC1N (stereo not drawn) [II-52]
35 | 10.02 | CCN(CC)CCN [II-39]
36 | 9.94 and 9.13 | NCC(CN)CN [II-54]
37 | 10.38 | O=C(O)CN(CCN(CC(=O)O)C1CCCCC1O)CC(=O)O (stereo not drawn) [II-30]
38 | 9.84 | O=C(O)CN(CCN(CC(=O)O)c1ccccc1)CC(=O)O [II-31]
39 | 10.82 and 9.61 | NCCCCN [II-48, H2N—C4H8—NH2]
40 | 10.62 | NCCCN [II-47, H2N—C3H6—NH2]
41 | 10.96 and 10.02 | NCCCCCN [II-49, H2N—C5H10—NH2]
42 | 10.56 | CCNCCN [II-34, N-ethylethylenediamine]
43 | 11.05 | NCCN(CC(=O)O)CC(=O)O [II-25]
44 | 9.92 and 9.20 | NCCNCCNCCN [II-56, triethylenetetramine]
45 | 10.29 | CNCCNC [II-40]
46 | 9.92 and 9.20 | NCC(CN)CN [II-57, 1,3-diamino-2-aminomethylpropane]

Row | Molecule | Pka
47 | NCCCNCCCN [II-55, H2N—C3H6—NH—C3H6—NH2] | 11.70 and 10.77
48 | CN(C)CCN(C)C [II-44] | 10.13

Same assay, conditions: Compound III, pH buffering agent of alkali part solution

Row | Pka | Molecule
49 | 9.60 | NCCN(CCN)CCN [III-14]
50 | 10.46 | O=C(O)CN(CCP(=O)(O)O)CC(=O)O [III-9]
51 | 9.12 | O=C(O)CNCC(=O)O [III-1]
52 | 9.00 | OCCNCCO [III-17]
53 | 11.79 | O=C(O)CN(CC(=O)O)Cc1ccc(O)cc1 [III-7]
54 | 10.31 | O=C(O)CCNCCC(=O)O [III-2]
55 | 9.24 | O=C(O)CN(CCCO)CC(=O)O [III-6]
56 | 9.61 | COCCN [III-16, CH3—O—C2H4—NH2]
57 | 10.60 | CN(CC(=O)O)CC(=O)O [III-3]
58 | 10.24 | CC(C)(C)CCN(CC(=O)O)CC(=O)O [III-4]
59 | 10.79 | O=C(O)CN(CCS)CC(=O)O [III-5]

Row | Molecule | Pka
60 | O=C(O)CN(CC(=O)O)CP(=O)(O)O [III-8] | 10.76

Same assay, conditions: PH buffering agent of alkali part solutions B1-B34, Table 3

Row | pka | Molecule
61 | 9.62 | NC(CC(=O)O)C(=O)O (stereo not drawn) [Compound I-15]
62 | 10.26 | NCCC(=O)O [Compound I-4, H2N—C2H4—COOH]
63 | 9.87 and 10.26 | CC(N)C(=O)O (stereo not drawn) [Compound I-3]
64 | 10.33 | O=C([O-])[O-].[K+].[K+] [K2CO3 (carbonic acid)]
65 | 9.12 | O=C(O)CNCC(=O)O [III-1]
66 | 9.00 | OCCNCCO [III-17]
67 | 9.08 | N=C(N)NCCCC(N)C(=O)O (stereo not drawn) [Compound I-20]
68 | 13.1 | O[Si](O)(O)O [H2SiO2(OH)2, reference compound]

Same assay, conditions: pH buffering agents with pKa 5 to 9 for fixing and bleaching-fixing solution

Row | pKa | Molecule
69 | 7.77 | CCNCCNCC [N,N′-diethylethylenediamine]
70 | 7.21 | NCCNCCO [II-37, N-(2-hydroxyethyl)ethylenediamine]
71 | 7.18 | OCCNCCNCCO [N,N′-di(2-hydroxylethyl)ethylenediamine]
72 | 7.07 | CCN(CC)CCN [N,N-diethylethylenediamine]
73 | 7.63 | CCNCCN [II-34, N-ethylethylenediamine]
74 | 6.67 | NCCNCCNCCN [II-56, triethylenetetramine]
75 | 6.92 | meso-2,3-diaminopropane
76 | 6.44 | NCC(CN)CN [II-57, 1,3-diamino-2-aminomethylpropane]
77 | 7.47 | CNCCNC [N,N′-dimethylethylenediamine]
78 | 6.79 | CN(C)CCN [N,N-dimethylethylenediamine]
